In PMC4363092 (Journal of medicinal chemistry, 2014):
Values joined by “and” are separate entries in the source; they are usually repeats but may differ in a detail not shown here. Equal values may be shown once. “Also recorded” adds a separate entry of the source. Read-outs that look alike come from different tables or passages of the source.

Experiments:
P2Y11 receptor [1] = details: cited from earlier work; for potency relative to ATP at the P2Y11 receptor: higher potency than ATP
NPP1 = details: cited from earlier work; for Ki: read-out: Ki, NPP1
human NTPDase1,2,3,8 = assay: Inhibition of NTPDase activity, text statements pooled over NTPDase1,2,3,8; format: biochemical; details: analogue 100 μM, pooled over four NTPDases
human NTPDase8 = target: T1, human NTPDase8 (Homo sapiens, UniProt Q5MY95); details: analogue 100 μM as substrate; activity with 100 μM ATP set as 100%
T1 sequence (Q5MY95 1-495): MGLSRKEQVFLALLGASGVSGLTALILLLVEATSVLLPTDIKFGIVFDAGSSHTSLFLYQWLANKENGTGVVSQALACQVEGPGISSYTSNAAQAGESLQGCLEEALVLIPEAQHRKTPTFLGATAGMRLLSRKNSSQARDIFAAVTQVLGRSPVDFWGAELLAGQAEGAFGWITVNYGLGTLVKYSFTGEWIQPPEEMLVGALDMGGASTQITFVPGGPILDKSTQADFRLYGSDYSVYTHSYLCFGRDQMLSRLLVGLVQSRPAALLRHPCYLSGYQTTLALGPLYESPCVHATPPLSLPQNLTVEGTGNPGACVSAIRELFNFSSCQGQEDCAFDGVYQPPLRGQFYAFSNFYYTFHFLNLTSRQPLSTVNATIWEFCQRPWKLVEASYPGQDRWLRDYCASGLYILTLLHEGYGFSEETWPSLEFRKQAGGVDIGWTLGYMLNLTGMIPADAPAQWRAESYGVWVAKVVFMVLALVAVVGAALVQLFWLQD

human NTPDase3 = target: T2, human NTPDase3 (Homo sapiens, UniProt O75355); details: analogue 100 μM as substrate; activity with 100 μM ATP set as 100%
T2 sequence (O75355 1-529): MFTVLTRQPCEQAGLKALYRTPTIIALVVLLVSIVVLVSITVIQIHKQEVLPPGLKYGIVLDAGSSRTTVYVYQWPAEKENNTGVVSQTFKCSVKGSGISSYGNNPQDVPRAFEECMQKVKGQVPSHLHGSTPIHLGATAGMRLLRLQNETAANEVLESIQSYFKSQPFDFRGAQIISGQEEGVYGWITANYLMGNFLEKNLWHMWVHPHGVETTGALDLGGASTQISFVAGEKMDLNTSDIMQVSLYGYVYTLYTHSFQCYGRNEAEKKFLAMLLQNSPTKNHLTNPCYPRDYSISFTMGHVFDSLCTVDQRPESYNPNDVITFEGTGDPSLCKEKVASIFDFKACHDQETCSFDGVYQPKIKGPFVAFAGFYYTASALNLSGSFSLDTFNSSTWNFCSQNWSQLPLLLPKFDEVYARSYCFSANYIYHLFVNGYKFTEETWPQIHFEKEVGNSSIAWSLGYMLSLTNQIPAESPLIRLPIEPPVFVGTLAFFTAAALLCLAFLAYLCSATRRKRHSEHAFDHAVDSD

P2Y11 receptor [2] = target: T3, P2Y11 receptor (Homo sapiens, UniProt Q96G91); assay: [Ca2+]i elevation in 1321N1 astrocytoma cells expressing GFP-P2Y11 receptor; format: cell-based; details: for potency relative to ATP at the P2Y11 receptor: more potent than ATP
T3 sequence (Q96G91 1-374): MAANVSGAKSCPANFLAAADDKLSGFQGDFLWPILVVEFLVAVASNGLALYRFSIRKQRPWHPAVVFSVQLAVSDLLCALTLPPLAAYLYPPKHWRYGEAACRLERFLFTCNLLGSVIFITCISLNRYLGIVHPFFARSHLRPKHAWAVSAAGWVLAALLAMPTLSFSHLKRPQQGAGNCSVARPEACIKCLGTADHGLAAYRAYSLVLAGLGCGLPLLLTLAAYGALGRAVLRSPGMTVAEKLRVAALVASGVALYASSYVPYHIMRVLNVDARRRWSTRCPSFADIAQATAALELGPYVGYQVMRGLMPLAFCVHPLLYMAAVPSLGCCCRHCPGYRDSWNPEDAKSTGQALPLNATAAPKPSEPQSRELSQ

human NTPDase1 = target: T4, human NTPDase1 (Homo sapiens, UniProt P49961); details: analogue 100 μM as substrate; activity with 100 μM ATP set as 100%
T4 sequence (P49961 1-510): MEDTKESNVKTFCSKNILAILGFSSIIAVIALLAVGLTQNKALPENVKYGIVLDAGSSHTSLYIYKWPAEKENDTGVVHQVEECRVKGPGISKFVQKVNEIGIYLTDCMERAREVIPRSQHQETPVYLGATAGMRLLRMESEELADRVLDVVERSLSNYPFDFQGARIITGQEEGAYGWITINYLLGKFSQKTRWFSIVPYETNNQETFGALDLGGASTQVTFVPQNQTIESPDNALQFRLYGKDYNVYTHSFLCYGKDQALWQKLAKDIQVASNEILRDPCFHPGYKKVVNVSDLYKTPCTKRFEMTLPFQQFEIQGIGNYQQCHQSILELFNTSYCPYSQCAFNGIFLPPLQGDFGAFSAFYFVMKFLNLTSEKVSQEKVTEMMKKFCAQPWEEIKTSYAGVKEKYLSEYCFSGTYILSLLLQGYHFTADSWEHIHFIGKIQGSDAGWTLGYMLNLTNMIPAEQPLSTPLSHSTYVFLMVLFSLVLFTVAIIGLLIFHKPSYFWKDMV

human NTPDase2 = target: T5, human NTPDase2 (Homo sapiens, UniProt Q9Y5L3); details: analogue 100 μM as substrate; activity with 100 μM ATP set as 100%
T5 sequence (Q9Y5L3 1-495): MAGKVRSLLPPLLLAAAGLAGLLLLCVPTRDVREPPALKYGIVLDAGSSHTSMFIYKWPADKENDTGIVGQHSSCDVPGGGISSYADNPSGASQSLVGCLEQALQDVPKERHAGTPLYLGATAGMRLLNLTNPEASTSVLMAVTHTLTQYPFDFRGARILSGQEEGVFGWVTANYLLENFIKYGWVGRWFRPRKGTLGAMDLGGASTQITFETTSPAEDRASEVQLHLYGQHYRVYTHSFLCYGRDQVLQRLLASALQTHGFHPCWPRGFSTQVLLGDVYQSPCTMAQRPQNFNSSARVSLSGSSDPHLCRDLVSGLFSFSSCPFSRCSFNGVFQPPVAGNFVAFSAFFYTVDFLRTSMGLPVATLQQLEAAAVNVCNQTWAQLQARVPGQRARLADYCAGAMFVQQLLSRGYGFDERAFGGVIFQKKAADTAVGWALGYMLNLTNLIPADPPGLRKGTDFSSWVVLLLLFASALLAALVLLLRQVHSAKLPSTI

human NPP1 = target: T6, human NPP1 (Homo sapiens, UniProt P22413); assay: Inhibition of NPP1, pNP-TMP as substrate; format: biochemical; details: Dixon and Cornish–Bowden methods
T6 sequence (P22413 1-925): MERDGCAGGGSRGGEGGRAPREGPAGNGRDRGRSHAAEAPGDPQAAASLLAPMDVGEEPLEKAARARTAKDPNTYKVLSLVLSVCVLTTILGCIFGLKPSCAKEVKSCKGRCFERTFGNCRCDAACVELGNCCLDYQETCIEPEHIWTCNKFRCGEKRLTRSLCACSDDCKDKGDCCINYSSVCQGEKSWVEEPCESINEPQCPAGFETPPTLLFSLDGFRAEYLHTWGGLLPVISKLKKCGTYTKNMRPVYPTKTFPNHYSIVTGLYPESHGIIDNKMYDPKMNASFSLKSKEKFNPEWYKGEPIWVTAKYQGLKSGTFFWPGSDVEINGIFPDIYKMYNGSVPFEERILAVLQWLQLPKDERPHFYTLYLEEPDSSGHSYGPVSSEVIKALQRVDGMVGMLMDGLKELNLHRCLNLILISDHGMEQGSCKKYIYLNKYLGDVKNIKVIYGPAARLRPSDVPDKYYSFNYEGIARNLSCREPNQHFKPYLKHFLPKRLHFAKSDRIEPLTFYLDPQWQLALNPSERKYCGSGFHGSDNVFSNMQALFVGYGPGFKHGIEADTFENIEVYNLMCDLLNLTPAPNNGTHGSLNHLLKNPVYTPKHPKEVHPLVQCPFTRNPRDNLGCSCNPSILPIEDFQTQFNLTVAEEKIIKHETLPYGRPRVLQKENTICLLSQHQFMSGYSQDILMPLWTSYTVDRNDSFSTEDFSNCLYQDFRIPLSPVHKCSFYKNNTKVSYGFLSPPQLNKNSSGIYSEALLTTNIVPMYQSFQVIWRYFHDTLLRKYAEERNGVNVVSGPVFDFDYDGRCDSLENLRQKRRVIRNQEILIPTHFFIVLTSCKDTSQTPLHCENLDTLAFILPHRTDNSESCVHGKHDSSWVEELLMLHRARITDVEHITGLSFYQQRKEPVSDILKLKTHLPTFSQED

Row | Structure (SMILES) | inhibition of ATP hydrolysis by NTPDase1,2,3,8 (human NTPDase1,2,3,8) | relative activity (%) ± SD of ATP hydrolysis, NTPDase8 (human NTPDase8) [%] | relative activity (%) ± SD of ATP hydrolysis, NTPDase3 (human NTPDase3) [%] | relative activity (%) ± SD of ATP hydrolysis, NTPDase1 (human NTPDase1) [%] | relative activity (%) ± SD of ATP hydrolysis, NTPDase2 (human NTPDase2) [%] | also measured
1 | CCCSc1nc(N)c2ncn([C@@H]3O[C@H](COP(O)(=S)OP(=O)(O)C(Cl)(Cl)P(=O)(O)O)[C@@H](O)[C@H]3O)c2n1 (single isomer, unassigned; isomer a) [2-(propylthio)adenosine 5′-α-thio-β,γ-(dichloromethylene)-triphosphate, isomer A, 2-(propylthio)adenosine 5′-α-thio-β,γ-(dichloromethylene)-triphosphate] | – | – | – | – | – | potency relative to ATP at the P2Y11 receptor (P2Y11 receptor [1]): ~ 3 fold
2 | BP(=O)(OC[C@H]1O[C@@H](n2cnc3c(N)ncnc32)[C@H](O)[C@@H]1O)OP(=O)(O)CP(=O)(O)O (single isomer, unassigned; isomer a) [adenosine 5′-α-borano-β,γ-methylenetriphosphate (isomer A), adenosine 5′-α-borano-β,γ-methylenetriphosphate] | – | – | – | – | – | Ki (NPP1; ref 22 (b65 prints ref 44)): 0.5 µM
3 | CCCSc1nc(N)c2ncn([C@@H]3O[C@H](COP(O)(=S)OP(=O)(O)C(Cl)(Cl)P(=O)(O)O)[C@@H](O)[C@H]3O)c2n1 (single isomer, unassigned; isomer b) [2-(propylthio)adenosine 5′-α-thio-β,γ-(dichloromethylene)-triphosphate, isomer B, 2-(propylthio)adenosine 5′-α-thio-β,γ-(dichloromethylene)-triphosphate] | – | – | – | – | – | potency relative to ATP at the P2Y11 receptor (P2Y11 receptor [1]): ~ 4 fold
4 | Nc1ncnc2c1ncn2[C@@H]1O[C@H](CO[P@](O)(=S)OP(=O)(O)CP(=O)(O)O)[C@@H](O)[C@H]1O [1a] | did not interfere | 4.4 ± 0.2 | 4.2 ± 0.2 | 4.4 ± 0.2 | 4.7 ± 1.7 | EC50 ± SEM (μM), [Ca^2+]i elevation, P2Y11 (P2Y11 receptor [2]; 1321N1 cells, nr = no response up to 10 μM): not agonists; also recorded: inactive; also recorded: not active, nr ^c
5 | Nc1ncnc2c1ncn2[C@@H]1O[C@H](CO[P@@](O)(=S)OP(=O)(O)CP(=O)(O)O)[C@@H](O)[C@H]1O [1b] | did not interfere | 5.3 ± 0.2 | 4.8 ± 0.2 | 5.4 ± 0.2 | 5.5 ± 0.3 | potency relative to ATP at the P2Y11 receptor (P2Y11 receptor [2]): 7 fold and ~ 7 fold; type of inhibition (human NPP1): mixed-type inhibition, predominantly competitive
6 | Nc1ncnc2c1ncn2[C@@H]1O[C@H](CO[P@@](O)(=S)OP(=O)(O)C(Cl)(Cl)P(=O)(O)O)[C@@H](O)[C@H]1O [2b] | did not interfere | 5.3 ± 0.2 | 5.4 ± 0.2 | 5.4 ± 0.2 | 5.5 ± 0.2 | EC50 (P2Y11 receptor [2]): 3 ± 1.46 µM; potency relative to ATP at the P2Y11 receptor (P2Y11 receptor [2]): 2 fold and ~ 2 fold; type of inhibition (human NPP1): mixed-type inhibition, predominantly competitive
7 | Nc1ncnc2c1ncn2[C@@H]1O[C@H](CO[P@](=O)(O)O[P@](=O)(O)O[P@@](=O)(O)S)[C@@H](O)[C@H]1O [ATP-γ-S] | – | – | – | – | – | pEC50, P2Y11 receptor (P2Y11 receptor [1]): 5.52
8 | Nc1ncnc2c1ncn2[C@H]1C[C@H](O)[C@@H](COP(=O)(O)CP(=O)(O)OP(=O)(O)OP(=O)(O)CP(=O)(O)OC[C@H]2O[C@@H](n3cnc4c(N)ncnc43)C[C@@H]2O)O1 [bis(2′-deoxyadenosine) α,β:δ,ε-dimethylenepentaphosphonate] | – | – | – | – | – | IC50 (NPP1; read-out: IC50, NPP1): 13 µM; Ki (NPP1): 9 µM
9 | Nc1ncnc2c1nc(S)n2[C@@H]1O[C@H](COP(=O)(O)OP(=O)(O)OP(=O)(O)O)[C@@H](O)[C@H]1O [compound 4] | – | 73 ± 1 | 51 ± 3 | 43 ± 2 | 73 ± 2 | –
